Read-outs that look alike come from different tables or passages of the source.
Legend:
[1] = tested on: MUC1-fs; assay: Immunofluorescence imaging of MUC1-fs in P cells (Example 2); format: cell-based; settings: for EC50: 48 hr incubation, MUC1-fs; for ECMax (%) / Emax: 48 hr; for ECMax (%): DMSO = 0, JQ1 (250 nM) = −100% activity; for Emax: DMSO = 0, JQ1 = −100% activity, in %
Experimental: (§1) P cells were seeded 24 hr prior to compound treatment at a density of 12,000 cells/well in 384 well Cell Carrier Ultra plates (6057308, Perkin Elmer), pre-coated with 0.25 mg/mL Synthemax II SC Substrate (3535, Corning). Compounds were used at 5 doses (35, 3.5, 0.35, 0.035 and 0.0035 μM) for the primary screen and 10 doses (16, 5.6, 1.8, 0.6, 0.21, 0.07, 0.02, 0.008, 0.002 and 0.0008 μM) for the following screens. The compounds, in two replicates, were transferred from compound source plates to the cell plates using the HighRes Pin Tool. DMSO was used as a negative control and JQ1 (250 nM) (a bromodomain inhibitor) was chosen as a positive control, based on earlier studies showing its potent effect on reducing total MUC1 mRNA levels (data not shown). After 48 hr incubation, cells were fixed for 20 min in 4% PFA (Electron Microscopy Sciences) in PBS, washed twice, then permeabilized (10 min) with 0.5% Triton-X100 (X100-100ML, Sigma-Aldrich) in PBS and washed once more. Cells were blocked for 10 min at RT with Blocking solution (100 mM Tris HCL pH8; 150 mM NaCL; 5 g/L Blocking Reagent [11096176001, Roche]), then incubated 90 min at RT with one of the following primary antibodies in Roche Blocking solution: 1:500, monoclonal Fab-A-VSH anti-MUC1-fs, AbD22655.2, Bio-Rad; 1:2000, monoclonal mouse anti-MUC1 (214D4), 05-652-KC, Millipore; 1:1000, monoclonal, Rabbit anti-GM130 (D6B1) XP, 12480, Cell signaling technology. The primary antibody cocktail was incubated at RT for 1.5 hr, followed by four PBS wash cycles. The secondary antibody cocktail contained four components that were all prepared at a 1:1000 dilution in the Roche blocking solution and consisted of Alexa Fluor® 488-conjugated AffiniPure F(ab′)2 Fragment Goat anti-Human IgG, 109-546-097, Jackson Immunoresearch; Alexa Fluor® 647-conjugated Goat anti-Rabbit IgG, A-21246, Thermo Fisher Scientific®; Alexa Fluor® 546 Goat anti-mouse IgG, A-21123, Thermo Fisher Scientific® and Hoechst 33342 stain (62249, Thermo Fisher Scientific®). The secondary antibody cocktail was incubated at RT for 45 min, followed by four PBS wash cycles. Finally, plates were sealed with a Plate Loc plate and stored in Liconic incubator at 10° C. until imaging. Following image analysis, three parameters were selected, i) MUC1-fs and ii) MUC1-wt total cytoplasm intensity (averaged per cell) and iii) cell number as was detected by Hoechst 33342 stained nuclei. The levels of MUC1-fs and MUC1-wt found following DMSO and JQ1 were defined as 0 and −100% activity, respectively. The values obtained for all compounds were normalized accordingly. Cell number was normalized to DMSO control.

[2] = tested on: MUC1-wt; assay: Immunofluorescence imaging of MUC1-wt in P cells (Example 2); format: cell-based; settings: for EC50: 48 hr incubation, MUC1-wt; for WT ECMax (%) / WT EMax: 48 hr; for WT ECMax (%): DMSO = 0, JQ1 (250 nM) = −100% activity; for WT EMax: DMSO = 0, JQ1 = −100% activity, in %
Experimental: as §1

EC50 ([1]; read-out: EC50(Spot))	EC50 ([2]; read-out: WT EC50 (Cytoplasm))	EC50 ([1]; read-out: EC50)	EC50 ([2]; read-out: WT EC50)	SMILES	ECMax (%) [1]	WT ECMax (%) [2]	Emax [1]	WT EMax [2]
> 32 µM	> 32 µM	–	–	CCCCC1(C)C2CCC(C2)C1N (stereo not drawn) [Compound 206-P2]	−10.5%	−3.86%	–	–
26.9 µM	> 32 µM	–	–	C[C@H]1CC[C@@]2(C1)[C@H]1CC[C@H](C1)[C@H]2N.Cl [Compound 210-P1-A]	−33.62%	0.73%	–	–
15.5 µM	> 32 µM	–	–	C[C@@H]1CC[C@@]2(C1)[C@H]1CC[C@H](C1)[C@H]2N.Cl [Compound 210-P1-B]	−26.85%	−4.05%	–	–
1.04 µM	> 32 µM	–	–	C[C@@H]1CC[C@]2(C1)[C@@H]1CC[C@@H](C1)[C@@H]2N.Cl [Compound 210-P2-A]	−62.63%	−8.9%	–	–
0.1 µM	> 16 µM	–	–	C[C@H]1CC[C@]2(C1)[C@@H]1CC[C@@H](C1)[C@@H]2N.Cl [Compound 210-P2-B]	−66.02%	30.21%	–	–
1.22 µM	> 5.6 µM	–	–	C[C@@H]1CC[C@]2(C1)[C@H]1CC[C@H](C1)[C@H]2N.Cl [Compound 211-P1-A]	−87.44%	9.39%	–	–
5 µM	> 32 µM	–	–	C[C@H]1CC[C@]2(C1)[C@H]1CC[C@H](C1)[C@H]2N.Cl [Compound 211-P1-B]	−61.55%	9.31%	–	–
20.1 µM	> 32 µM	–	–	C[C@H]1CC[C@@]2(C1)[C@@H]1CC[C@@H](C1)[C@@H]2N.Cl [Compound 211-P2-A]	−23.56%	3.22%	–	–
> 32 µM	> 32 µM	–	–	C[C@@H]1CC[C@@]2(C1)[C@@H]1CC[C@@H](C1)[C@@H]2N.Cl [Compound 211-P2-B]	−10.93%	4.75%	–	–
1.57 µM	3.01 µM	–	–	NC1C2CCC(C2)C12CCCCC2 [Compound 212-P1, (1R,3S,4S)-spiro[bicyclo[2.2.1]heptane-3,1′-cyclohexan]-2-amine]	−65.18%	110.73%	–	–
10.5 µM	> 32 µM	–	–	C[C@@H]1CCC[C@]2(C1)[C@H]1CC[C@H](C1)[C@H]2N.Cl [Compound 214-P1-A]	−26.27%	3.96%	–	–
12.1 µM	> 32 µM	–	–	C[C@H]1CCC[C@]2(C1)[C@H]1CC[C@H](C1)[C@H]2N.Cl [Compound 214-P1-B]	−58.73%	−12.08%	–	–
24 µM	> 32 µM	–	–	C[C@H]1CCC[C@@]2(C1)[C@@H]1CC[C@@H](C1)[C@@H]2N.Cl [Compound 214-P2-A]	−24.69%	−7.57%	–	–
15.1 µM	> 32 µM	–	–	C[C@@H]1CCC[C@@]2(C1)[C@@H]1CC[C@@H](C1)[C@@H]2N.Cl [Compound 214-P2-B]	−29.12%	−4.96%	–	–
–	–	> 16 µM	> 16 µM	Cl.N[C@@H]1[C@@H]2CC[C@@H](C2)C12CCCC(C(=O)N1CCOCC1)C2 (stereo partly drawn) [Compound 226, ((1S,3R,4R)-3-aminospiro[bicyclo[2.2.1]heptane-2,1′-cyclohexan]-3′-yl)(morpholino)methanone hydrochloride]	–	–	7.8	9.0
–	–	> 16 µM	> 16 µM	Cl.N[C@H]1[C@@H]2CC[C@@H](C2)C12CCCC(C(=O)N1CCOCC1)C2 (stereo partly drawn) [Compound 226-1, ((1S,3S,4R)-3-aminospiro[bicyclo[2.2.1]heptane-2,1′-cyclohexan]-3′-yl)(morpholino)methanone hydrochloride]	–	–	−32.0	−24.5
–	–	> 16 µM	> 16 µM	Cl.N[C@@H]1[C@@H]2CC[C@@H](C2)C12CCCC(C(=O)N1CCCCC1)C2 (stereo partly drawn) [Compound 227, ((1S,3R,4R)-3-aminospiro[bicyclo[2.2.1]heptane-2,1′-cyclohexan]-3′-yl)(piperidin-1-yl)methanone hydrochloride]	–	–	−39.9	4.6
–	–	3.6 µM	> 16 µM	Cl.N[C@H]1[C@@H]2CC[C@@H](C2)C12CCCC(C(=O)N1CCCCC1)C2 (stereo partly drawn) [Compound 227-1, ((1S,3S,4R)-3-aminospiro[bicyclo[2.2.1]heptane-2,1′-cyclohexan]-3′-yl)(piperidin-1-yl)methanone hydrochloride]	–	–	−79.5	−7.0
–	–	1.63 µM	> 16 µM	Cl.N[C@H]1[C@@H]2CC[C@@H](C2)C12CCCCC2 [Compound 231, (1S,3S,4R)-spiro[bicyclo[2.2.1]heptane-2,1′-cyclohexan]-3-amine hydrochloride]	–	–	−76.5	−7.0
–	–	4.83 µM	> 16 µM	C[C@]1(N)[C@@H]2CC[C@@H](C2)C12CCCCC2.Cl [Compound 234, (1S,3S,4R)-3-methylspiro[bicyclo[2.2.1]heptane-2,1′-cyclohexan]-3-amine hydrochloride]	–	–	−96	6.7
–	–	2.29 µM	13.5 µM	Cl.N[C@@H]1[C@@H]2CC[C@@H](C2)C12CC1CCC2CC1 (stereo partly drawn) [Compound 239, (1S,3R,4R)-spiro[bicyclo[2.2.1]heptane-2,2′-bicyclo[2.2.2]octan]-3-amine hydrochloride]	–	–	−83.1	62.7
–	–	> 16 µM	> 16 µM	Cl.N[C@@H]1[C@@H]2CC[C@@H](C2)C12CCC[C@H](O)C2 (stereo partly drawn) [Compound 241-A, (1S,3R,3′S,4R)-3-aminospiro[bicyclo[2.2.1]heptane-2,1′-cyclohexan]-3′-ol hydrochloride]	–	–	−11.4	−5.7
–	–	1.9 µM	> 16 µM	CC(C)[C@@]1(C)[C@H]2CC[C@H](C2)[C@H]1N.Cl [Compound 246-A, (1R,2R,3S,4S)-3-isopropyl-3-methylbicyclo[2.2.1]heptan-2-amine hydrochloride]	–	–	−67.8	20.7
–	–	6.99 µM	> 16 µM	CC(C)[C@@]1(C)[C@H]2CC[C@H](C2)[C@@H]1N.Cl [Compound 246-B, (1R,2S,3S,4S)-3-isopropyl-3-methylbicyclo[2.2.1]heptan-2-amine hydrochloride]	–	–	−69.3	6.2

SMILES	EC50 ([1]; read-out: EC50(Spot))	EC50 ([2]; read-out: WT EC50 (Cytoplasm))	EC50 ([1]; read-out: EC50)	EC50 ([2]; read-out: WT EC50)	ECMax (%) [1]	WT ECMax (%) [2]	Emax [1]	WT EMax [2]
CC[C@]1(Cc2ccccc2)[C@H]2CC[C@H](C2)[C@H]1N.Cl [Compound 219-P1, (1R,2R,3S,4S)-3-benzyl-3-ethylbicyclo[2.2.1]heptan-2-amine hydrochloride]	–	–	> 16 µM	> 16 µM	–	–	5.6	12.4
CC[C@@]1(Cc2ccccc2)[C@@H]2CC[C@@H](C2)[C@@H]1N.Cl [Compound 219-P2, (1S,2S,3R,4R)-3-benzyl-3-ethylbicyclo[2.2.1]heptan-2-amine hydrochloride]	–	–	> 16 µM	> 16 µM	–	–	−10.3	11.3
CCC1(CC)[C@H]2CC[C@H](C2)[C@]1(N)c1cccs1.Cl [Compound 247, (1R,2R,4S)-3,3-diethyl-2-(thiophen-2-yl)bicyclo[2.2.1]heptan-2-amine hydrochloride]	–	–	> 16 µM	> 16 µM	–	–	−45.8	5.7

Reference: patent publication US11840495B2, “Compositions and methods related to di-substituted bicyclo[2.2.1] heptanamine-containing compounds” (The Broad Institute, Inc., priority 2020, dated 2023)
